Experiments:
Type in all cases: cell-based
Escherichia coli = experiment: antimicrobial activity test; conditions: at a concentration of 1.0 mg/mL
Pseudomonas aeruginosa = experiment: antimicrobial activity test; conditions: at a concentration of 1.0 mg/mL
Bacillus subtilis = experiment: antimicrobial activity test; conditions: at a concentration of 1.0 mg/mL
Mycobacerium vaccae = experiment: antimicrobial activity test; conditions: at a concentration of 1.0 mg/mL
Staphylococcus aureus = experiment: antimicrobial activity test; conditions: at a concentration of 1.0 mg/mL
RXF 1781L = experiment: modified propidium iodide cytotoxicity assay; conditions: Homo sapiens, Kidney
Text: (§1) Antiproliferative and cytotoxic assays. A modified propidium iodide assay was used to determine the cytotoxic activity of compounds hydrazidomycin A, B, and C against 12 to 42 cell lines derived from solid human tumors. The test procedure has been as is known in the art. Cell lines tested were derived from patient tumors engrafted as a subcutaneously growing tumor in NMRI nu/nu mice, or obtained from the American Type Culture Collection, Rockville, MD, USA, National Cancer Institute, Bethesda, MD, USA, or Deutsche Sammlung von Mikroorganismen und Zellkulturen, Braunschweig. The IC50 was determined by four parameter non-linear curve fit after plotting compound concentration versus fluorescence intensity, and is given as the concentration of test compound that gives a response (inhibition of cell growth) half way between the top and bottom plateau of the sigmoidal concentration-response curve (i.e. the inflection point of the curve).

LXFL1121L = experiment: modified propidium iodide cytotoxicity assay; conditions: Homo sapiens, LXFL 1121L, Lung, non-small cell
Text: as §1

RXF 486L = experiment: modified propidium iodide cytotoxicity assay; conditions: Homo sapiens, Kidney
Text: as §1

BXF 1218L = experiment: modified propidium iodide cytotoxicity assay; conditions: Homo sapiens, Bladder
Text: as §1

OVXF 899L = experiment: modified propidium iodide cytotoxicity assay; conditions: Homo sapiens, Ovary
Text: as §1

MEXF 1341L = experiment: modified propidium iodide cytotoxicity assay; conditions: Homo sapiens, Melanoma
Text: as §1

CAL-27 = experiment: modified propidium iodide cytotoxicity assay; conditions: Homo sapiens, Head and neck
Text: as §1

MEXF 462NL = experiment: modified propidium iodide cytotoxicity assay; conditions: Homo sapiens, Melanoma
Text: as §1

DU-145 = experiment: modified propidium iodide cytotoxicity assay; conditions: Homo sapiens, Prostate
Text: as §1

PXF 1118L = experiment: modified propidium iodide cytotoxicity assay; conditions: Homo sapiens, Mesothelioma
Text: as §1

MEXF 276L = experiment: modified propidium iodide cytotoxicity assay; conditions: Homo sapiens, MEXF276L, Melanoma
Text: as §1

HCT-116 = experiment: modified propidium iodide cytotoxicity assay; conditions: Homo sapiens, Colon
Text: as §1

RKO = experiment: modified propidium iodide cytotoxicity assay; conditions: Homo sapiens, Colon
Text: as §1

MCF-7 = experiment: modified propidium iodide cytotoxicity assay; conditions: Homo sapiens, MCF7, Breast
Text: as §1

NIH:OVCAR-3 = experiment: modified propidium iodide cytotoxicity assay; conditions: Homo sapiens, Ovary
Text: as §1

PXF 1752L = experiment: modified propidium iodide cytotoxicity assay; conditions: Homo sapiens, Mesothelioma
Text: as §1

MDA-MB-231 = experiment: modified propidium iodide cytotoxicity assay; conditions: Homo sapiens, Breast
Text: as §1

LXFL 529L = experiment: modified propidium iodide cytotoxicity assay; conditions: Homo sapiens, Lung, non-small cell
Text: as §1

MKN45 = experiment: modified propidium iodide cytotoxicity assay; conditions: Homo sapiens, MKN-45, Stomach
Text: as §1

Saos-2 = experiment: modified propidium iodide cytotoxicity assay; conditions: Homo sapiens, Sarcoma
Text: as §1

RXF 393NL = experiment: modified propidium iodide cytotoxicity assay; conditions: Homo sapiens, Kidney
Text: as §1

BXF 1352L = experiment: modified propidium iodide cytotoxicity assay; conditions: Homo sapiens, Bladder
Text: as §1

LXFA 629L = experiment: modified propidium iodide cytotoxicity assay; conditions: Homo sapiens, Lung, non-small cell
Text: as §1

PAXF 546L = experiment: modified propidium iodide cytotoxicity assay; conditions: Homo sapiens, Pancreas
Text: as §1

LXFA 526L = experiment: modified propidium iodide cytotoxicity assay; conditions: Homo sapiens, Lung, non-small cell
Text: as §1

TE671 = experiment: modified propidium iodide cytotoxicity assay; conditions: Homo sapiens, TE-671, Sarcoma
Text: as §1

LNCaP = experiment: modified propidium iodide cytotoxicity assay; conditions: Homo sapiens, Prostate
Text: as §1

PAXF 1657L = experiment: modified propidium iodide cytotoxicity assay; conditions: Homo sapiens, Pancreas
Text: as §1

PXF 698L = experiment: modified propidium iodide cytotoxicity assay; conditions: Homo sapiens, Mesothelioma
Text: as §1

PANC-1 = experiment: modified propidium iodide cytotoxicity assay; conditions: Homo sapiens, Pancreas
Text: as §1

PC-3M = experiment: modified propidium iodide cytotoxicity assay; conditions: Homo sapiens, Prostate
Text: as §1

HT-29 = experiment: modified propidium iodide cytotoxicity assay; conditions: Homo sapiens, Colon
Text: as §1

UXF 1138L = experiment: modified propidium iodide cytotoxicity assay; conditions: Homo sapiens, Uterus
Text: as §1

LIXF 575L = experiment: modified propidium iodide cytotoxicity assay; conditions: Homo sapiens, Liver
Text: as §1

DIFI = experiment: modified propidium iodide cytotoxicity assay; conditions: Homo sapiens, Colon
Text: as §1

NCI-H460 = experiment: modified propidium iodide cytotoxicity assay; conditions: Homo sapiens, Lung, non-small cell
Text: as §1

GXF 251L = experiment: modified propidium iodide cytotoxicity assay; conditions: Homo sapiens, Stomach
Text: as §1

MAXF 401NL = experiment: modified propidium iodide cytotoxicity assay; conditions: Homo sapiens, Breast
Text: as §1

22Rv1 = experiment: modified propidium iodide cytotoxicity assay; conditions: Homo sapiens, Prostate
Text: as §1

CXF 269L = experiment: modified propidium iodide cytotoxicity assay; conditions: Homo sapiens, Colon
Text: as §1

LXFA 289L = experiment: modified propidium iodide cytotoxicity assay; conditions: Homo sapiens, Lung, non-small cell
Text: as §1

[1] = tested on: panel of 12 human tumor cell lines; experiment: modified propidium iodide cytotoxicity assay, panel of 12 human tumor cell lines; conditions: for IC50: geometric mean over panel of 12 human tumor cell lines, read-out: Cytotoxic potency (geometric mean IC50)
Text: as §1

[2] = tested on: panel of 42 human tumor cell lines; experiment: modified propidium iodide cytotoxicity assay, panel of 42 human tumor cell lines; conditions: for IC50: mean over panel of 42 tumor cell lines, 15 histotypes; for IC50 values in sensitive cell lines, fold lower than the mean IC50 of all cell lines tested: on average, sensitive cell lines versus all cell lines
Text: as §1

Enterococcus faecalis = experiment: antimicrobial activity test; conditions: at a concentration of 1.0 mg/mL
T-24 = experiment: modified propidium iodide cytotoxicity assay; conditions: Homo sapiens, Bladder
Text: as §1

With `CCCCCCCCCCCC/C=C\N(NC(=O)COC)C(=O)CCCCCCCCC` [Hydrazidomycin A, hydrazidomycin A] the antimicrobial activity (Escherichia coli) was “no antimicrobial activity”, the antimicrobial activity (Pseudomonas aeruginosa) was “no antimicrobial activity” and the antimicrobial activity (Bacillus subtilis) was “no antimicrobial activity”. For the same molecule, the antimicrobial activity (Mycobacerium vaccae) was “no antimicrobial activity”, the antimicrobial activity (Staphylococcus aureus) was “no antimicrobial activity” and the IC50 (RXF 1781L) was 982 nM. For the same molecule, the IC50 (LXFL1121L) was 2310 nM, the IC50 (RXF 486L) was 1620 nM and the IC50 (BXF 1218L) was 2430 nM. For the same molecule, the IC50 (OVXF 899L) was 1340 nM, the IC50 (MEXF 1341L) was 936 nM and the IC50 (CAL-27) was 716 nM. For the same molecule, the IC50 (MEXF 462NL) was 765 nM, the IC50 (DU-145) was 539 nM and the IC50 (PXF 1118L) was 2400 nM. It also gave an IC50 (MEXF 276L) of 1590 nM, an IC50 (HCT-116) of 758 nM and an IC50 (RKO) of 598 nM. For the same molecule, the IC50 (MCF-7) was 782 nM, the IC50 (NIH:OVCAR-3) was 1100 nM and the IC50 (PXF 1752L) was 1190 nM. For the same molecule, the IC50 (MDA-MB-231) was 286 nM, the IC50 (LXFL 529L) was 2120 nM and the IC50 (MKN45) was 676 nM. For the same molecule, the IC50 (Saos-2) was 1820 nM, the IC50 (RXF 393NL) was 1110 nM and the IC50 (BXF 1352L) was 2300 nM. The IC50 (LXFA 629L) was 247 nM, the IC50 (PAXF 546L) was 660 nM and the IC50 (LXFA 526L) was 1650 nM. The IC50 (TE671) was 898 nM, the IC50 (LNCaP) was 957 nM and the IC50 (PAXF 1657L) was 1910 nM. For the same molecule, the IC50 (PXF 698L) was 982 nM, the IC50 (PANC-1) was 933 nM and the IC50 (PC-3M) was 105 nM. For the same molecule, the IC50 (HT-29) was 464 nM, the IC50 (UXF 1138L) was 893 nM and the IC50 (LIXF 575L) was 349 nM. For the same molecule, the IC50 (DIFI) was 782 nM, the IC50 (NCI-H460) was 2310 nM and the IC50 (GXF 251L) was 144 nM. The IC50 (MAXF 401NL) was 471 nM, the IC50 (22Rv1) was 882 nM and the IC50 (CXF 269L) was 222 nM. For the same molecule, the IC50 (LXFA 289L) was 1100 nM, the IC50 [1] was 370 nM and the IC50 ([2]; Homo sapiens) was 860 nM. For the same molecule, the IC50 ([2]; listed as (II)) was 857 nM, the “IC50 values in sensitive cell lines, fold lower than the mean IC50 of all cell lines tested” value [2] was “about 4 fold” and the antimicrobial activity (Enterococcus faecalis) was “no antimicrobial activity”.
`CCCCCCC/C=C\CCCCC/C=C\N(NC(=O)COC)C(=O)CCCCCCCCC` [Hydrazidomycin B, hydrazidomycin B] was tested, and the antimicrobial activity (Escherichia coli) was “no antimicrobial activity”, the antimicrobial activity (Pseudomonas aeruginosa) was “no antimicrobial activity” and the antimicrobial activity (Bacillus subtilis) was “no antimicrobial activity”. For the same molecule, the antimicrobial activity (Mycobacerium vaccae) was “no antimicrobial activity”, the antimicrobial activity (Staphylococcus aureus) was “no antimicrobial activity” and the IC50 (RXF 1781L) was 10200 nM. It also gave an IC50 (LXFL1121L) of 17400 nM, an IC50 (RXF 486L) of 21200 nM and an IC50 (BXF 1218L) of 19300 nM. It also gave an IC50 (OVXF 899L) of 19100 nM, an IC50 (MEXF 1341L) of 14900 nM and an IC50 (CAL-27) of 12700 nM. The IC50 (MEXF 462NL) was 20400 nM, the IC50 (DU-145) was 7220 nM and the IC50 (PXF 1118L) was 30000 nM. It also gave an IC50 (MEXF 276L) of 18300 nM, an IC50 (HCT-116) of 19400 nM and an IC50 (RKO) of 13800 nM. For the same molecule, the IC50 (MCF-7) was 11000 nM, the IC50 (NIH:OVCAR-3) was 18500 nM and the IC50 (PXF 1752L) was 12700 nM. It also gave an IC50 (MDA-MB-231) of 5530 nM, an IC50 (LXFL 529L) of 17300 nM and an IC50 (MKN45) of 11600 nM. The IC50 (Saos-2) was 18000 nM, the IC50 (RXF 393NL) was 11000 nM and the IC50 (BXF 1352L) was 15100 nM. The IC50 (LXFA 629L) was 1410 nM, the IC50 (PAXF 546L) was 10800 nM and the IC50 (LXFA 526L) was 7070 nM. For the same molecule, the IC50 (TE671) was 18200 nM, the IC50 (T-24) was 9190 nM and the IC50 (LNCaP) was 14100 nM. The IC50 (PAXF 1657L) was 20400 nM, the IC50 (PXF 698L) was 14300 nM and the IC50 (PANC-1) was 10000 nM. The IC50 (PC-3M) was 1730 nM, the IC50 (HT-29) was 6540 nM and the IC50 (UXF 1138L) was 18200 nM. It also gave an IC50 (LIXF 575L) of 7390 nM, an IC50 (DIFI) of 10200 nM and an IC50 (NCI-H460) of 17200 nM. For the same molecule, the IC50 (GXF 251L) was 1540 nM, the IC50 (MAXF 401NL) was 876 nM and the IC50 (22Rv1) was 15600 nM. For the same molecule, the IC50 (CXF 269L) was 5940 nM, the IC50 (LXFA 289L) was 12600 nM and the IC50 [1] was 6040 nM. For the same molecule, the IC50 ([2]; Homo sapiens) was 10700 nM, the “IC50 values in sensitive cell lines, fold lower than the mean IC50 of all cell lines tested” value [2] was about 8 fold and the antimicrobial activity (Enterococcus faecalis) was “no antimicrobial activity”.
`CCCCC/C=C\C/C=C\CCCC/C=C\N(NC(=O)COC)C(=O)CCCCCCCCC` [Hydrazidomycin C, hydrazidomycin C] was tested, and the antimicrobial activity (Escherichia coli) was “no antimicrobial activity”, the antimicrobial activity (Pseudomonas aeruginosa) was “no antimicrobial activity” and the antimicrobial activity (Bacillus subtilis) was “no antimicrobial activity”. For the same molecule, the antimicrobial activity (Mycobacerium vaccae) was “no antimicrobial activity”, the antimicrobial activity (Staphylococcus aureus) was “no antimicrobial activity” and the IC50 [1] was over 10000 nM. The “inhibition of tumor cell growth” value ([1]; up to a concentration of 10 µM) was “did not show inhibition of tumor cell growth” and the antimicrobial activity (Enterococcus faecalis) was “no antimicrobial activity”.

Source: patent EP2526935A1, “Hydrazidomycins” (Oncotest GmbH, priority 2011, dated 2012)
